Laboratory results reported in article PMC6379706, “Characterization of the interactions of chemically-modified therapeutic nucleic acids with plasma proteins using a fluorescence polarization assay” (Nucleic Acids Research, 2018).

Tests used:
human serum albumin = molecular target: T1, human serum albumin (Homo sapiens, UniProt P02768); assay: fluorescence polarization, direct titration of dye with protein; format: binding
T1 construct: gene ALB; purchased human albumin, EMD Millipore (Calbiochem)
T1 sequence (P02768 25-609): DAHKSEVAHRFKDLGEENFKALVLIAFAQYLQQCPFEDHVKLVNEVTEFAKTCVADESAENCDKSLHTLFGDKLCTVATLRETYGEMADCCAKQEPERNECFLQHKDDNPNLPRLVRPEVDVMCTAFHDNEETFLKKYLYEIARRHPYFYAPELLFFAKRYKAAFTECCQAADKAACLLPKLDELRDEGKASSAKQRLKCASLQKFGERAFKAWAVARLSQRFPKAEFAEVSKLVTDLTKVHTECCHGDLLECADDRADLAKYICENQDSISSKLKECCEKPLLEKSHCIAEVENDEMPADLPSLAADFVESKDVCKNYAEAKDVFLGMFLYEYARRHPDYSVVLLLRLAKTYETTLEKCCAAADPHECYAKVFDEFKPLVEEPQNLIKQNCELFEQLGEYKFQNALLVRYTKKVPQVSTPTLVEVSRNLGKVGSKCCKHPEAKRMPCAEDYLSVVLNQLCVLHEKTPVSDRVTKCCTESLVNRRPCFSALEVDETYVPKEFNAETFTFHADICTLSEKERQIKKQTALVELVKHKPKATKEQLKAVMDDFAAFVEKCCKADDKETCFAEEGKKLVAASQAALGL

transferrin = molecular target: T2, transferrin (Homo sapiens, UniProt P02787); assay: as above; format: binding
T2 construct: gene TF; purchased from Sigma Aldrich
T2 sequence (P02787 20-698): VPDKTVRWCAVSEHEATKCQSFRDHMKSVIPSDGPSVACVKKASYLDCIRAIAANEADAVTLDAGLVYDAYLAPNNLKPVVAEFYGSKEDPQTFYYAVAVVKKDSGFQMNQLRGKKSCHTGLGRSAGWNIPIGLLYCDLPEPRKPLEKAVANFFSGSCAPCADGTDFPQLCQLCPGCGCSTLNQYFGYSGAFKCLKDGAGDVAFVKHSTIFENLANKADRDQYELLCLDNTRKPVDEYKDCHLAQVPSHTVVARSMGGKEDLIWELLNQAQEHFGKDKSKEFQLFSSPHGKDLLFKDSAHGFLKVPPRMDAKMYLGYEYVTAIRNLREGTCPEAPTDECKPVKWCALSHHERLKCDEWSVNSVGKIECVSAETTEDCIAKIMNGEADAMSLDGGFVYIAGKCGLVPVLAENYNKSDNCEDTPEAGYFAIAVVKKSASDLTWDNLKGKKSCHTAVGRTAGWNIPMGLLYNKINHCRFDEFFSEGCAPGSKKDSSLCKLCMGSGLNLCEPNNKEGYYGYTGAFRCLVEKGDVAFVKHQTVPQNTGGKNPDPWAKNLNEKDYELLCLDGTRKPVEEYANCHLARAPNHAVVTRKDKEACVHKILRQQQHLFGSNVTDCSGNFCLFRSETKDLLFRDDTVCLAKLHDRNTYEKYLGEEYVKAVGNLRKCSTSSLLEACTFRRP

Structure (SMILES) | Kd (human serum albumin) | Kd (transferrin)
N=c1ccc2c(-c3ccc(C(=O)O)cc3C(=O)O)c3ccc(N)c(S(=O)(=O)O)c3oc-2c1S(=O)(=O)O [Alexa Fluor 488] | 791 µM | 380 µM
CN1/C(=C/C=C/C=C/C2=[N+](CCCCCC(=O)O)c3ccccc3C2(C)C)C(C)(C)c2ccccc21 [Cy5] | 44.8 µM | 46.1 µM
O=C(O)c1ccccc1-c1c2ccc(=O)cc-2oc2cc(O)ccc12 [fluorescein] | 138 µM | 502 µM
CN1/C(=C/C=C/C=C/C2=[N+](CCCCCC(=O)O)c3ccc(S(=O)(=O)O)cc3C2(C)C)C(C)(C)c2cc(S(=O)(=O)O)ccc21 [sCy5] | 568 µM | 2020 µM
